Experimental findings from ChEMBL document CHEMBL3085746, “Discovery of novel PTP1B inhibitors via pharmacophore-oriented scaffold hopping from Ertiprotafib” (Bioorg Med Chem Lett, 2013) are described below.

In assay [1] the target is T1, Tyrosine-protein phosphatase non-receptor type 1 (Homo sapiens) (UniProt P18031).
T1 sequence (whole entry): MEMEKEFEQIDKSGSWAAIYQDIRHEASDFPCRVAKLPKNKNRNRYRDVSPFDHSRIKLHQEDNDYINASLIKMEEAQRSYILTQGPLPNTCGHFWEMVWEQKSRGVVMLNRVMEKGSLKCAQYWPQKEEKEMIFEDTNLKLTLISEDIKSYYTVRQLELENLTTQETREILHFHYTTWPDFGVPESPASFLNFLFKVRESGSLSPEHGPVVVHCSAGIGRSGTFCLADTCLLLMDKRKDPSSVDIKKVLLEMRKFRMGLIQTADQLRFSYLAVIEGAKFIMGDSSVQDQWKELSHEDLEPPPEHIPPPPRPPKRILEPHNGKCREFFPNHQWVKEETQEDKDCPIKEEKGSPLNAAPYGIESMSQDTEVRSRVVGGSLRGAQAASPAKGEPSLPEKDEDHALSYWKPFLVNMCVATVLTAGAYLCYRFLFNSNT
The assay can be described thus: Inhibition of GST-tagged recombinant human PTP1B at 100 uM.

For assay [2], the target named is T2, Tyrosine-protein phosphatase non-receptor type 1 (Homo sapiens, UniProt P18031).
T2 sequence (P18031 whole entry): T1 sequence (whole entry)
The assay can be described thus: Inhibition of GST-tagged recombinant human PTP1B.

The inhibition is the change of the read-out against control, counted positive when it falls. `COc1ccc(N(Cc2ccc3c(c2)OCO3)C(=O)c2ccc(CN(CC(=O)O)Cc3ccccc3)cc2)cc1`: the inhibition in assay [1] was below 40%.

For `COc1ccc(N(Cc2ccc(O[C@H](Cc3ccccc3)C(=O)O)cc2)C(=O)c2ccc3c(c2)OCO3)cc1`, the inhibition in assay [1] was below 40%.

On to `O=C(N[C@H](Cc1ccccc1)C(=O)O)c1ccc(Cn2c3ccccc3c3ccccc32)cc1`, for which the inhibition in assay [1] was 51.8%.

Regarding `O=C(O)CC(CC(=O)c1ccccc1)c1ccc(CN(Cc2ccc3c(c2)OCO3)c2ccc(F)cc2)cc1` (stereo not given), in assay [1], the inhibition worked out at 59.1%.

With `O=C(N[C@H](Cc1ccccc1)C(=O)O)c1ccc(CN(c2ccccc2)c2ccccc2)cc1`, the inhibition in assay [1] amounted to 83.8%.

A word on the IC50: it is the concentration at which inhibition is half-maximal. On to `O=C(O)CC(CC(=O)c1ccccc1)c1ccc(Cn2c3ccccc3c3ccccc32)cc1` (stereo not given), for which the IC50 in assay [2] was 10 µM. For the same compound, the inhibition in assay [1] came out at 98%.

For `O=C(O)CN(C(=O)Cc1ccccc1)c1ccc(CN(Cc2ccc3c(c2)OCO3)c2ccc(F)cc2)cc1`, the IC50 in assay [2] amounted to 1.3 µM. For the same compound, in assay [1], the inhibition worked out at 96.4%.

As to `O=C(N[C@H](Cc1ccccc1)C(=O)O)c1ccc(CN(Cc2ccccc2)c2ccccc2)cc1`, in assay [2], the IC50 turned out to be 3.9 µM. Besides, the inhibition in assay [1] was found to be 113%.

On to `O=C(N[C@H](Cc1ccccc1)C(=O)O)c1ccc(Cn2c(Cc3ccccc3)nc3ccccc32)cc1`, for which the inhibition in assay [1] is 53.4%.

`O=C(O)CC(CC(=O)c1ccccc1)c1ccc(-n2c3ccccc3c3ccccc32)cc1` (stereo not given): in assay [2], the half-inhibitory concentration (IC50) worked out at 10.2 µM. Also, in assay [1], the inhibition is 106%.

Turning to `O=C(O)[C@@H](Cc1ccccc1)Oc1ccc(CN(Cc2ccc3c(c2)OCO3)c2ccc(F)cc2)cc1`, in assay [2], the half-maximal inhibitory concentration (IC50) worked out at 10.4 µM. Besides, the inhibition in assay [1] came to 112%.

Turning to `O=C(O)CN(Cc1ccccc1)c1ccc(CN(Cc2ccc3c(c2)OCO3)c2ccc(F)cc2)cc1`, the inhibition in assay [1] was 44.3%.

In the case of `O=C(O)[C@@H](Cc1ccccc1)Oc1c(Br)cc(-c2c3ccccc3c(Br)c3oc4ccccc4c23)cc1Br`, in assay [2], the IC50 was determined as 0.87 µM. For the same compound, the inhibition in assay [1] came to 100%.

As to `COc1ccc(N(Cc2ccc(C(=O)N[C@H](Cc3ccccc3)C(=O)O)cc2)Cc2ccc3c(c2)OCO3)cc1`, in assay [1], the inhibition was determined as 100%.

On to `COc1ccc(N(Cc2ccc3c(c2)OCO3)C(=O)c2ccc(C(CC(=O)O)CC(=O)c3ccccc3)cc2)cc1` (stereo not given), for which the inhibition in assay [1] is below 40%.

Turning to `COc1ccc(N(Cc2ccc(O[C@H](Cc3ccccc3)C(=O)O)cc2)C(=O)c2ccc(C(=O)O)cc2)cc1`, the inhibition in assay [1] was below 40%.

Take `O=C(O)CN(Cc1ccccc1)Cc1ccc(-n2c3ccccc3c3ccccc32)cc1`: the inhibition in assay [1] amounted to 67.3%.

Turning to `O=C(N[C@H](Cc1ccccc1)C(=O)O)c1ccc(CN(Cc2ccccc2)Cc2ccccc2)cc1`, in assay [2], the IC50 came out at 23.9 µM. Further, the inhibition in assay [1] amounted to 95%.

On to `O=C(O)CC(CC(=O)c1ccccc1)c1ccc(OC(c2ccccc2)c2ccccc2)cc1` (stereo not given), for which the inhibition in assay [1] was 61%.

Take `O=C(O)[C@@H](Cc1ccccc1)Oc1ccc(-n2c3ccccc3c3ccccc32)cc1`: the IC50 in assay [2] was found to be 40.3 µM. For the same compound, the inhibition in assay [1] came out at 98.4%.

With `O=C(N[C@H](Cc1ccccc1)C(=O)O)c1ccc(C(=O)N(Cc2ccccc2)Cc2ccccc2)cc1`, in assay [1], the inhibition was below 40%.

`O=C(O)[C@@H](Cc1ccccc1)Oc1ccc(C(=O)N(Cc2ccc3c(c2)OCO3)c2ccc(F)cc2)cc1`: in assay [1], the inhibition is below 40%.
